This is an account of results in patent US20200354348A1, “SEMISYNTHETIC AURONES AND METHODS OF USE THEREOF” (University of Kentucky Research Foundation, priority 2018, published 2020).

As to `COc1ccc2c(c1)c(/C=C1\Oc3cc(O)ccc3C1=O)cn2C` [Aurone 3k, (2Z)-6-Hydroxy-2-[(5-methoxy-1-methyl-1H-indol-3-yl)methylene]-1-benzofuran-3(2H)-one], the melting point was 301 to 303 °C.
As for `CCn1cc(/C=C2\Oc3cc(O)ccc3C2=O)c2cc(OC)ccc21` [Aurone 3l, (2Z)-2-[(1-Ethyl-5-methoxy-1H-indol-3-yl)methylene]-6-hydroxy-1-benzofuran-3(2H)-one], the figure is 265 to 267 °C; as for `CCn1cc(/C=C2\Oc3cc(O)ccc3C2=O)c2ccccc21` [Aurone 3m, (2Z)-2-[(1-Ethyl-1H-indol-3-yl)methylene]-6-hydroxy-1-benzofuran-3(2H)-one], 278 to 280 °C.
As for `Cc1c(O)ccc2c1O/C(=C\c1cn(C)c3ccccc13)C2=O` [Aurone 3n, (2Z)-6-Hydroxy-7-methyl-2-[(1-methyl-1H-indol-3-yl)methylene]-1-benzofuran-3(2H)-one], the figure is 293 to 295 °C.
With `COc1ccc2c(c1)c(/C=C1\Oc3c(ccc(O)c3C)C1=O)cn2C` [Aurone 3o, (2Z)-6-Hydroxy-2-[(5-methoxy-1-methyl-1H-indol-3-yl)methylene]-7-methyl-1-benzofuran-3(2H)-one], the melting point was 297 to 299 °C.
On to `Cn1cc(/C=C2\Oc3cc(OCc4ccccc4F)ccc3C2=O)c2ccccc21` [Aurone 4d, (2Z)-6-[(2-Fluorobenzyl)oxy]-2-[(1-methyl-1H-indol-3-yl)methylene]-1-benzofuran-3(2H)-one], for which the melting point was in the range of 241 to 243 °C.
`Cn1cc(/C=C2\Oc3cc(OCc4ccccc4Cl)ccc3C2=O)c2ccccc21` [Aurone 4e, (2Z)-6-[(2-Chlorobenzyl)oxy]-2-[(1-methyl-1H-indol-3-yl)methylene]-1-benzofuran-3(2H)-one] came in with a melting point of 206 to 208 °C.
For `Cn1cc(/C=C2\Oc3cc(OCc4c(F)cccc4F)ccc3C2=O)c2ccccc21` [Aurone 4f, (2Z)-6-[(2,6-Difluorobenzyl)oxy]-2-[(1-methyl-1H-indol-3-yl)methylene]-1-benzofuran-3(2H)-one], the melting point is > 220 °C.
In the case of `Cn1cc(/C=C2\Oc3cc(OCc4c(Cl)cccc4Cl)ccc3C2=O)c2ccccc21` [Aurone 4g, (2Z)-6-[(2,6-Dichlorobenzyl)oxy]-2-[(1-methyl-1H-indol-3-yl)methylene]-1-benzofuran-3(2H)-one], the melting point was in the range of 247 to 249 °C.
For `Cn1cc(/C=C2\Oc3cc(OCc4c(F)cccc4Cl)ccc3C2=O)c2ccccc21` [Aurone 4h, (2Z)-6-[(2-Chloro-6-fluorobenzyl)oxy]-2-[(1-methyl-1H-indol-3-yl)methylene]-1-benzofuran-3(2H)-one], the melting point fell in the range of 225 to 227 °C.
As for `Cc1c(OCc2c(Cl)cccc2Cl)ccc2c1O/C(=C\c1cn(C)c3ccccc13)C2=O` [Aurone 4i, (2Z)-6-[(2,6-Dichlorobenzyl)oxy]-7-methyl-2-[(1-methyl-1H-indol-3-yl)methylene]-1-benzofuran-3(2H)-one], the figure is 232 to 234 °C; as for `COc1ccc2c(c1)c(/C=C1\Oc3cc(OCc4ccc(F)cc4Cl)ccc3C1=O)cn2C` [Aurone 4j, (2Z)-6-[(2-Chloro-4-fluorobenzyl)oxy]-2-[(5-methoxy-1-methyl-1H-indol-3-yl)methylene]-1-benzofuran-3(2H)-one], 184 to 186 °C.
`COc1ccc2c(c1)c(/C=C1\Oc3cc(OCc4c(F)cccc4Cl)ccc3C1=O)cn2C` [Aurone 4k, (2Z)-6-[(2-Chloro-6-fluorobenzyl)oxy]-2-[(5-methoxy-1-methyl-1H-indol-3-yl)methylene]-1-benzofuran-3(2H)-one] showed a melting point of 200 to 202 °C.
As for `COc1ccc2c(c1)c(/C=C1\Oc3cc(OCc4c(Cl)cccc4Cl)ccc3C1=O)cn2C` [Aurone 4l, (2Z)-6-[(2,6-Dichlorobenzyl)oxy]-2-[(5-methoxy-1-methyl-1H-indol-3-yl)methylene]-1-benzofuran-3(2H)-one], the figure is 233 to 235 °C.
